Measured values published in ChEMBL document CHEMBL1136703, “Leporin B: a novel hexokinase II gene inducing agent from an unidentified fungus” (Bioorg Med Chem Lett, 2003).
pIC50: −log10 of the molar value.

Tested on: L6
Assay: Inhibitory concentration against induction of Hexokinase II-luci signal in the reporter cell line
Assay type: functional, cell-based
Settings: Rattus norvegicus

**Q.** With C/C=C/C1Oc2c(-c3ccccc3)cn(O)c(=O)c2C2C(C)CCCC12 (stereo unspecified) as the molecule, how does the pIC50 read?
**A.** The pIC50 was 5.00.
